According to ChEMBL document CHEMBL2203057, “Characterisation of [¹¹C]PR04.MZ in Papio anubis baboon: a selective high-affinity radioligand for quantitative imaging of the dopamine transporter” (Bioorg Med Chem Lett, 2012):

Assays:
[1] = target: Sodium-dependent dopamine transporter (Rattus norvegicus, UniProt P23977); test: Binding affinity to rat DAT
[2] = target: T1, Sodium-dependent dopamine transporter (Homo sapiens, UniProt Q01959); test: Binding affinity to DAT
[3] = Drug uptake in Papio anubis striatum assessed per 100 ml at 137.4 +/- 66.8 MBq measured 25 +/- 2.5 mins post dose by dynamic PET scanning method; type: ADME, tissue-based
[4] = Drug distribution in Papio anubis putamen assessed as drug influx constant at 137.4 +/- 66.8 MBq; type: ADME, tissue-based
[5] = Drug distribution in Papio anubis midbrain assessed as drug efflux constant at 137.4 +/- 66.8 MBq; type: ADME, tissue-based
[6] = Drug distribution in Papio anubis caudate nucleus assessed as drug influx constant at 137.4 +/- 66.8 MBq; type: ADME, tissue-based
[7] = Drug uptake in Papio anubis ventral striatum at 137.4 +/- 66.8 MBq measured 90 mins post dose by dynamic PET scanning method; type: ADME, tissue-based; details: 1.5 h
[8] = Drug uptake in Papio anubis mid brain at 137.4 +/- 66.8 MBq measured 45 mins post dose by dynamic PET scanning method; type: ADME, tissue-based, Midbrain; details: 0.75 h
[9] = Drug uptake in Papio anubis caudate nucleus at 137.4 +/- 66.8 MBq measured 60 mins post dose co-treated with 1.5 mg/kg DAT ligand GBR12909 by dynamic PET scanning method; type: ADME, organism-based; design: dose 1.5 mg/kg; details: in vivo, 1 h
[10] = Drug uptake in Papio anubis striatum assessed per 100 ml at 137.4 +/- 66.8 MBq measured 90 mins post dose by dynamic PET scanning method; type: ADME, tissue-based; details: 1.5 h
[11] = Stability in Papio anubis plasma assessed as intact compound level at 137.4 +/- 66.8 MBq measured 30 mins post dose; type: ADME, cell-free; details: read-out: Stability
[12] = Drug uptake in Papio anubis ventral striatum at 137.4 +/- 66.8 MBq measured 45 mins post dose by dynamic PET scanning method; type: ADME, tissue-based; details: 0.75 h
[13] = Drug uptake in Papio anubis midbrain at 137.4 +/- 66.8 MBq measured 60 mins post dose co-treated with 1.5 mg/kg DAT ligand GBR12909 by dynamic PET scanning method; type: ADME, organism-based; design: dose 1.5 mg/kg; details: in vivo, 1 h
[14] = Stability in Sprague-Dawley rat brain assessed as intact compound level measured 60 mins post dose by HPLC; type: ADME, tissue-based; details: read-out: Stability
[15] = Drug uptake in Papio anubis putamen assessed per 100 ml at 137.4 +/- 66.8 MBq measured 25 +/- 2.5 mins post dose by dynamic PET scanning method; type: ADME, tissue-based
[16] = Drug uptake in Papio anubis caudate nucleus assessed per 100 ml at 137.4 +/- 66.8 MBq measured 25 mins post dose by dynamic PET scanning method; type: ADME, tissue-based
Nucleic Acid = test: Ratio of drug level in midbrain to cerebellum in Papio anubis midbrain at 137.4 +/- 66.8 MBq measured 90 mins post dose; type: ADME; details: 1.5 h
[17] = Drug uptake in Papio anubis midbrain at 137.4 +/- 66.8 MBq measured 60 mins post dose co-treated with DAT ligand [18F]PR04.MZ by dynamic PET scanning method; type: ADME, tissue-based; details: 1 h
[18] = In vivo binding affinity to DAT in Papio anubis caudate nucleus assessed as binding potential at 137.4 +/- 66.8 MBq; type: ADME, organism-based
[19] = In vivo binding affinity to DAT in Papio anubis putamen assessed as binding potential at 137.4 +/- 66.8 MBq; type: ADME, organism-based
[20] = Drug uptake in Papio anubis mid brain at 137.4 +/- 66.8 MBq measured 90 mins post dose by dynamic PET scanning method; type: ADME, tissue-based, Midbrain; details: 1.5 h
[21] = Drug distribution in Papio anubis putamen assessed as drug efflux constant at 137.4 +/- 66.8 MBq; type: ADME, tissue-based
[22] = Drug uptake in Papio anubis mid brain at 137.4 +/- 66.8 MBq measured 3.5 mins post dose by dynamic PET scanning method; type: ADME, tissue-based, Midbrain
Brain = test: Drug uptake in Papio anubis whole brain assessed per 100 ml at 137.4 +/- 66.8 MBq measured 3 +/- 0.5 mins post dose by dynamic PET scanning method; type: ADME, tissue-based
[23] = Drug distribution in Papio anubis ventral striatum assessed as drug influx constant at 137.4 +/- 66.8 MBq; type: ADME, tissue-based
[24] = Drug distribution in Papio anubis caudate nucleus assessed as drug efflux constant at 137.4 +/- 66.8 MBq; type: ADME, tissue-based
[25] = In vivo binding affinity to DAT in Papio anubis ventral striatum assessed as binding potential at 137.4 +/- 66.8 MBq; type: ADME, organism-based
[26] = Unbound fraction in Papio anubis plasma at 137.4 +/- 66.8 MBq; type: ADME, cell-free
[27] = In vivo binding affinity to DAT in Papio anubis midbrain assessed as binding potential at 137.4 +/- 66.8 MBq; type: ADME, organism-based
[28] = Drug distribution in Papio anubis ventral striatum assessed as drug efflux constant at 137.4 +/- 66.8 MBq; type: ADME, tissue-based
[29] = Drug uptake in Papio anubis caudate nucleus at 137.4 +/- 66.8 MBq measured 60 mins post dose co-treated with DAT ligand [18F]PR04.MZ by dynamic PET scanning method; type: ADME, tissue-based; details: 1 h
[30] = Drug uptake in Papio anubis putamen at 137.4 +/- 66.8 MBq measured 60 mins post dose co-treated with DAT ligand [18F]PR04.MZ by dynamic PET scanning method; type: ADME, tissue-based; details: 1 h
[31] = Drug uptake in Papio anubis striatum assessed per 100 ml at 137.4 +/- 66.8 MBq measured 180 mins post dose by dynamic PET scanning method; type: ADME, tissue-based; details: 3 h
[32] = Drug uptake in Papio anubis ventral striatum at 137.4 +/- 66.8 MBq measured 7.5 +/- 0.5 mins post dose by dynamic PET scanning method; type: ADME, tissue-based
[33] = Drug distribution in Papio anubis cerebellum assessed as drug influx constant at 137.4 +/- 66.8 MBq; type: ADME, tissue-based
[34] = In vivo binding affinity to DAT in Papio anubis cerebellum assessed as binding potential at 137.4 +/- 66.8 MBq; type: ADME, organism-based
[35] = Drug distribution in Papio anubis cerebellum assessed as drug efflux constant at 137.4 +/- 66.8 MBq; type: ADME, tissue-based
[36] = Drug distribution in Papio anubis midbrain assessed as drug influx constant at 137.4 +/- 66.8 MBq; type: ADME, tissue-based
[37] = Drug uptake in Papio anubis putamen at 137.4 +/- 66.8 MBq measured 60 mins post dose co-treated with 1.5 mg/kg DAT ligand GBR12909 by dynamic PET scanning method; type: ADME, organism-based; design: dose 1.5 mg/kg; details: in vivo, 1 h
[38] = target: T1, Sodium-dependent dopamine transporter; test: Displacement of [3H]DA from human DAT expressed in HEK293 cells; type: cell-based
[39] = target: T1, Sodium-dependent dopamine transporter; test: Displacement of [3H]WIN35,428 from human DAT expressed in HEK293 cells; type: cell-based
[40] = target: T2, Sodium-dependent serotonin transporter (Homo sapiens, UniProt P31645); test: Displacement of [3H]citalopram from human SERT expressed in HEK293 cells; type: cell-based
[41] = target: T3, Sodium-dependent noradrenaline transporter (Homo sapiens, UniProt P23975); test: Displacement of [3H]nisoxetine from human NET expressed in HEK293 cells; type: cell-based
[42] = target: T3, Sodium-dependent noradrenaline transporter; test: Displacement of [3H]NE from human NET expressed in HEK293 cells; type: cell-based
[43] = target: T2, Sodium-dependent serotonin transporter; test: Displacement of [3H]5-HT from human SERT expressed in HEK293 cells; type: cell-based
[44] = Lipophilicity, log D of the compound at pH 7.4 by HPLC; type: physicochemical; details: buffer

T1 sequence (Q01959 whole entry): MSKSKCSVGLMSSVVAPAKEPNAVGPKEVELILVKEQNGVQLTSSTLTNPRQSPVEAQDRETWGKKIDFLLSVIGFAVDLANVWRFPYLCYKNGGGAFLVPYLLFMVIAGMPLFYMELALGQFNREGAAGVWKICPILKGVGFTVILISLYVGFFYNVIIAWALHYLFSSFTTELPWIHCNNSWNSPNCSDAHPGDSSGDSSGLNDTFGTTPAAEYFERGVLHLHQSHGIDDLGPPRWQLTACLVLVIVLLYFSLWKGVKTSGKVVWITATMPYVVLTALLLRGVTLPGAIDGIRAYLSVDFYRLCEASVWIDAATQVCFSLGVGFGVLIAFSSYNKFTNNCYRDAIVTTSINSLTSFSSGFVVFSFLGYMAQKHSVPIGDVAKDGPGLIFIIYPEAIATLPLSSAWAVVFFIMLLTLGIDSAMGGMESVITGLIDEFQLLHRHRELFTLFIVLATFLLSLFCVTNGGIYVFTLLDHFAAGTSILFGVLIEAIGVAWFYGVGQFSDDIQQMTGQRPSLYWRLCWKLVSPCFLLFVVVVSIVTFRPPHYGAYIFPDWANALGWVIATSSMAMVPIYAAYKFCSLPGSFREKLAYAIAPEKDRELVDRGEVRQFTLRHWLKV
Sodium-dependent dopamine transporter (Rattus norvegicus, UniProt P23977), sequence (P23977 whole entry): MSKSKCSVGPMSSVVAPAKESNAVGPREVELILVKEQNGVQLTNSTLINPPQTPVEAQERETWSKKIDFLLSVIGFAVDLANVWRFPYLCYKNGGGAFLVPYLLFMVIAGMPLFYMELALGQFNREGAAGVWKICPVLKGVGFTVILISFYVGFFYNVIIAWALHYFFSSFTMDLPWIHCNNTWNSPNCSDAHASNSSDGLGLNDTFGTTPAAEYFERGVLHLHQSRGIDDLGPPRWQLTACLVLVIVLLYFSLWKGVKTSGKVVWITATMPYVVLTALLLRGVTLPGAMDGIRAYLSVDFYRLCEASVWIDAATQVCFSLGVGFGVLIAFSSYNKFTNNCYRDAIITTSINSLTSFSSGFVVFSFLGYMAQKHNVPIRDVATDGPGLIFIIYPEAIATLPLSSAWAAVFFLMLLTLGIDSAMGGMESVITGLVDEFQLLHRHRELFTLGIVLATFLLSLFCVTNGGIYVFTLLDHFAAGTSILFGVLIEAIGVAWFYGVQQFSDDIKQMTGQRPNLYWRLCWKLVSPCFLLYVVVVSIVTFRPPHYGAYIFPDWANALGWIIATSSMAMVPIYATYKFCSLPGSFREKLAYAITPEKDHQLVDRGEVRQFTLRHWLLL
T3 sequence (P23975 whole entry): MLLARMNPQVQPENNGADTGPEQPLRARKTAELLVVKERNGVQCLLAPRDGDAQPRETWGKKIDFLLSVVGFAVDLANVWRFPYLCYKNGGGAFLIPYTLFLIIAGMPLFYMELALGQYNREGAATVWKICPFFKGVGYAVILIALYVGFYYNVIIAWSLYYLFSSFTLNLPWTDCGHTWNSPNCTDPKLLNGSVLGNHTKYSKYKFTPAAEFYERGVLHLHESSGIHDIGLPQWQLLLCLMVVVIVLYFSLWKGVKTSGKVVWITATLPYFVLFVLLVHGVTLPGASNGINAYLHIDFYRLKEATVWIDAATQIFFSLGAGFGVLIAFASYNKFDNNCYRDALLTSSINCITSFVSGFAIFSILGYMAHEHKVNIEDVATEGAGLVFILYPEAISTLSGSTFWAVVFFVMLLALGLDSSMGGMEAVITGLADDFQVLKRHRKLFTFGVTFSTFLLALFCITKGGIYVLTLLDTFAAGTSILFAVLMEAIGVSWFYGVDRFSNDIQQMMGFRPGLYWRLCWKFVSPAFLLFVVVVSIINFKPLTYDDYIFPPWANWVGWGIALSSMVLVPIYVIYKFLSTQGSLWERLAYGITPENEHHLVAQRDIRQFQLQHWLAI
T2 sequence (P31645 whole entry): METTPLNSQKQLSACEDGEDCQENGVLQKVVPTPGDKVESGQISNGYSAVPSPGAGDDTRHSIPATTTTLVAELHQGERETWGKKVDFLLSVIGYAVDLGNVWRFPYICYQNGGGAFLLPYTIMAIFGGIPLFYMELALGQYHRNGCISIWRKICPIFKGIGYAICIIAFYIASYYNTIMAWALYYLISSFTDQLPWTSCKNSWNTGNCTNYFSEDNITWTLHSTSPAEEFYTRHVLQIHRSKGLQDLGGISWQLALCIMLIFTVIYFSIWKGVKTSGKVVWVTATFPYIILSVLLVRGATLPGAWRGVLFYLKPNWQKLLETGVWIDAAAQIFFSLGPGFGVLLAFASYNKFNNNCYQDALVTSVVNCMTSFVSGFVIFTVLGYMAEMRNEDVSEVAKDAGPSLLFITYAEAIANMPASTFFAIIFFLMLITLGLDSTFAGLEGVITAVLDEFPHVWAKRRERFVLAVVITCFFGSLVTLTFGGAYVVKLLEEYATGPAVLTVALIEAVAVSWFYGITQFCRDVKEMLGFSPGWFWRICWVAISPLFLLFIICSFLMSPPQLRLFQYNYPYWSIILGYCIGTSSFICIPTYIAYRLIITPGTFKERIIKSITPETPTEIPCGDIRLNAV

Compound: COC(=O)[C@H]1[C@@H](c2ccc(C)cc2)C[C@@H]2CC[C@H]1N2C/C=C/CF
- Kd [1]: 9 nM

Compound: COC(=O)[C@H]1[C@@H](c2ccc(Cl)cc2)C[C@@H]2CC[C@H]1N2CCF
- Ki [2]: 8 nM

Compound: COC(=O)[C@H]1[C@@H](c2ccc(C)cc2)C[C@@H]2CC[C@H]1N2C/C=C/I
- Kd [1]: 4 nM

Compound: Cc1ccc([C@H]2C[C@@H]3CC[C@H]([C@H]2C(=O)O[11CH3])N3CC#CCF)cc1
- Drug uptake [3]: 7.6 %ID
- Activity [4]: 0.015 ml/cm3/min
- Activity [5]: 0.016 min⁻¹
- Activity [6]: 0.017 ml/cm3/min
- Drug uptake [7]: 2.55 %ID/ml
- Drug uptake [8]: 1.3 %ID/ml
- Drug uptake [9]: Not Active
- Drug uptake [10]: 6.7 %ID
- remaining at 0.5 h [11]: 39%
- Drug uptake [12]: 3.1 %ID/ml
- Drug uptake [13]: Not Active
- remaining at 1 h [14]: > 95%
- Drug uptake [15]: 7.6 %ID
- Drug uptake [16]: 6.7 %ID
- Ratio (Nucleic Acid): 4.6
- Drug uptake [17]: Not Active
- Activity [18]: 29.3 ml/cm3
- Activity [19]: 36.8 ml/cm3
- Drug uptake [20]: 0.8 %ID/ml
- Activity [21]: 0.004 min⁻¹
- Drug uptake [22]: 2.8 %ID/ml
- Drug uptake (Brain): 26.1 %ID
- Activity [23]: 0.03 ml/cm3/min
- Activity [24]: 0.004 min⁻¹
- Activity [25]: 8.2 ml/cm3
- Fu [26]: 4.4 %ID
- Activity [27]: 2.7 ml/cm3
- Activity [28]: 0.0076 min⁻¹
- Drug uptake [29]: Not Active
- Drug uptake [30]: Not Active
- Drug uptake [31]: 4.8 %ID
- Drug uptake [32]: 3.8 %ID/ml
- Activity [33]: 0.144 ml/cm3/min
- Activity [34]: 0 ml/cm3
- Activity [35]: 0.036 min⁻¹
- Activity [36]: 0.064 ml/cm3/min
- Drug uptake [37]: Not Active

Compound: COC(=O)[C@H]1[C@@H](c2ccc(C)cc2)C[C@@H]2CC[C@H]1N2CC#CCF
- IC50 [38]: 3.26 nM
- IC50 [39]: 1.93 nM
- IC50 [40]: 108 nM
- IC50 [41]: 22.5 nM
- IC50 [42]: 31 nM
- IC50 [43]: 240 nM
- logD [44]: 2.7
